The results in this text go back to patent US12582642B2, “Composition for treating, improving, and/or preventing progression of bovine papillomatosis caused by bovine papillomavirus” (KinoPharma, Inc., priority 2020, dated 2026).

Assay [1] relates to bovine papilloma (wart) caused by BPV in front teats. In words: Therapeutic effect confirmation test performed on dairy cow having papilloma. In kind it is in vivo, cow (female dairy cows). Set-up: key to Determination (pharmaceutical effect for each individual cow): Effective: Test section>Control section; Ineffective: Test section≤Control section. An excerpt:
To female dairy cows (four), each having papillomas in both of front teats, an ointment agent containing Compound A was applied once a day to a papilloma (wart) of one of the front teats (test section). A dressing tape (Navis, PROSHARE Dressing Role, No. 8-5965-01) was applied around the teat after the application of the ointment agent to prevent external contamination. The ointment agent was applied over a surface of the teat at about 0.01 g to about 0.2 g (equivalent to the active ingredient of about 0.3 mg to about 6 mg) per 1 cm^2 of the surface area. The application (treatment) of 5-day administration with 2-day rest was continued for 4 weeks. The diseased part was imaged once a week. Pharmaceutical effects were evaluated based on a state of the diseased part (wart) four weeks after the start of the application.
Changes (size reduction/disappearance, no change, and growth/occurrence) of warts after four-week administration were evaluated with the following three-level evaluation scores. No change” includes the suppression of growth and being non-effective. “Occurrence” means that a new wart was generated during the four-week administration.
Size reduction/disappearance=+1, no change=0, and growth/occurrence=−1.
Further, scores were added for each individual cow, and pharmaceutical effects for each individual cow were determined based on the following criteria. • Effective: Test section>Control section • Ineffective: Test section≤Control section
When only small warts were targeted, the growth or size reduction of warts noticeably appear, which is considered to make it easier to determine the effects of Compound A. In view of this, only warts having a size of less than 5 mm before the application of an ointment agent were selected from the test sections and the control sections in the above-described confirmation test, and the ratio of warts that had smaller sizes or disappeared was calculated.

The test system is the same in assay [2]. The description is as above. In kind it is in vivo, cow (female dairy cows).
[3] abbreviates: total of cows 01-04, ointment 3% by weight, 4 weeks.

“And” between values parts separate entries of the source, which are not always exact repeats. Equal entries are not always repeated. “Also recorded” adds a separate entry of the source.

Consider `Fc1ccc(N2CCCCC2)c(NC(=S)c2ccncc2)c1` [Compound A, N-[5-fluoro-2-(1-piperidinyl)phenyl]-4-pyridinethioamide], for which the “Ratio of warts that had smaller sizes or disappeared” value in assay [1] (Evaluation Method 2: only warts of less than 5 mm before application, 14 warts in the test sections, control sections 0%) amounted to 28.6%. Also, in assay [1] (based on the total scores and on the individual cow evaluations, 4 weeks), the “Overall judgement of the ointment agent containing Compound A” value was “considered effective”. Moreover, the “Cases (cows) determined effective out of four cases” value in assay [1] (four cows, 4 weeks, ointment 3% by weight) is on record as “Effective in three”. Besides, the “State of diseased part in a test section (FIG. 2 images)” value in assay [1] (from before the start of administration to after the end of administration) was “warts disappeared”. Moreover, the “Test section Growth/Occurrence (evaluation score)” value in assay [1] (per individual cow, ointment (Compound A: 3% by weight) applied once a day to teat wart, 4 weeks, growth/occurrence=−1 per wart) was 0 (3×) and −6. For the same compound, the “Test section Size reduction/Disappearance (evaluation score)” value in assay [1] (per individual cow, ointment (Compound A: 3% by weight, white petrolatum) applied once a day to teat wart, 5-day administration with 2-day rest, 4 weeks, size reduction/disappearance=+1 per wart) was “+1 (2×) and +3 and +2”. Besides, the “Determination (pharmaceutical effect for each individual cow)” value in assay [1] (per individual cow, test section score versus control section (ointment base) score, 4 weeks) is on record as “Ineffective; also recorded: Effective”. Moreover, the “Effectiveness score Test section” value in assay [1] (scores added for each individual cow, ointment 3% by weight, 4 weeks) was “+1 (2×) and −3 and +2”. Besides, in assay [1] (setting [3]), the “Test section Growth/Occurrence, Total of four cows” value was −6 and the “Test section Size reduction/Disappearance, Total of four cows” value is given as “+7”. In addition, the “Effectiveness score Test section, Total” value in assay [1] (total of four cows, control sections total −8, 4 weeks) is given as “+1”. Besides, the “Warts that disappeared among the additional reduced warts in the test section” value in assay [2] (administration continued for a further four weeks after the four-week administration) was “two”. In addition, in assay [2] (administration continued under the same conditions for a further four weeks after the four-week administration), the “Additional warts with reduced size in the test section” value is listed as “four”.
